According to patent publication US8598339B2, “Withanolide isolated from Physalis longifolia and analogs and methods of use thereof” (University of Kansas, priority 2011, dated 2013):
Like-named read-outs stand apart in the source and are kept apart here.

Key:
Type in all cases: cell-based
melanoma cells B16F10 = assay: MTS cell viability assay, B16F10; details: Mus musculus; for IC50: B16-F10, Table 1, 72-hour treatment
Description: (§1) Human carcinoid cells, NCI-H727 (ATCC, Manassas, Va.), were cultured under standard conditions. Squamous cell carcinoma of head and neck cells, MDA1986 (Myers, et al. (2002) Clin. Cancer Res. 8:293) and JMAR (Swan, et al. (2003) Oral Oncol. 39:648-55); and melanoma cells lines B16F10 (ATCC, Manassas, Va.) and SKMEL28 (CLS, Eppelheim, Germany) were cultured in DMEM medium supplemented with 10% heat-inactivated fetal bovine serum (Sigma-Aldrich, St. Louis, Mo.), 1×MEM-essential amino acid, 1×MEM vitamin, and penicillin/streptomycin (Sigma-Aldrich, St. Louis, Mo.) in a humid environment of 5% CO2 at 37° C. Activity of withanolides against DRO81-1 and TT medullary thyroid cancer cells was also determined.
(§2) Cells were cultured in 96 well plates at a concentration of 1-2×10^4 cells/mL. Cell viability was assessed with the nonradioactive cell proliferation MTS assay using Cell Titer 96AQUEOUS One Solution Reagent (PROMEGA, Madison, Wis.), according to the manufacturer's instruction. After a 72-hour treatment, 20 μL of Cell Titer 96AQUEOUS One Solution Reagent were added to each well and incubated for 3 hours at 37° C. 5% CO2, and formazan absorbance was measured at 490 nm.

[1] = test system: human melanoma SKMEL28 cells; assay: MTS cell viability assay, SKMEL28; details: Homo sapiens; for IC50: SK-MEL-28, 72 h
Description: as §1, §2
A cell viability MTS assay was carried out to determine the anti-cancer effect of the withanolides on human melanoma SKMEL28 cells. Cells were treated for 72 hours and cell viability was determined according to the manufacturer's instruction.

[2] = test system: squamous cell carcinoma of head and neck cells MDA1986; assay: MTS cell viability assay, MDA1986; details: Table 1, 72-hour treatment
Description: as §1, §2

[3] = test system: squamous cell carcinoma of head and neck cells JMAR; assay: MTS cell viability assay, JMAR; details: for IC50: Table 1, 72-hour treatment
Description: as §1, §2

[4] = test system: human carcinoid cells NCI-H727; assay: MTS cell viability assay, NCI-H727
Description: as §1, §2

MRC-5 = assay: MTS cell viability assay, MRC-5; details: Homo sapiens, MRC5, Table 1, 72-hour treatment
[5] = test system: DRO81-1 medullary thyroid cancer cells; assay: MTS cell viability assay, DRO81-1
Description: as §1, §2

HS766T = assay: Pancreatic cancer cell viability, HS766T
Description: (§3) The activity of the withanolides of this invention were tested in pancreatic cancer cells. […] Moreover, IC50 values were determined for these compounds (Table 14).

Mia PaCa-2 = assay: Pancreatic cancer cell viability, Mia PaCa-2; details: Homo sapiens
Description: as §3

[6] = test system: heat shock factor (HSF) / HSE-luciferase in Hs766T cells; assay: HSE-luciferase reporter, Hs766T; set-up: dose or concentration left out as unconfirmed; details: heat shock 42° C. 30 minutes; recovery 8 hours
Description: To monitor the activation of heat shock factor (HSF) and heat shock-mediated signal transduction pathways, Hs766T cells were transfected with a HSE-luciferase construct, then treated with 3 mM of the selected withanolides for 8 hours. The cells were heat shocked at 42° C. for 30 minutes and allowed to recover at 37° C. for 8 hours. Cells were lysed and luciferase activity was measured on a plate reader.

[7] = test system: hsf1 and client proteins of Hsp90 in Hs766T cells; assay: Western blot, Hs766T
[8] = test system: hsf1 and client proteins of Hsp90 in MIA PaCa-2 cells; assay: Western blot, MIA PaCa-2
[9] = test system: HSF1, Hsp70 and Hsp40 mRNA; assay: HSF1, Hsp70 and Hsp40 mRNA levels; details: Control 1.0
Description: Levels of HSF1, Hsp70 and Hsp40 mRNA were also determined in response to treatment with SX002 or X003 for 8 or 16 hours.

[10] = test system: TT medullary thyroid cancer cells; assay: MTS cell viability assay, TT; details: Table 1, 72-hour treatment
Description: as §1, §2

SUP-B15 Ph+ ALL cells = assay: MTS assay, SUP-B15
Description: (§4) Cell proliferation was analyzed using MTS assay and Trypan Blue exclusion. Annexin V-FITC/Propidium Iodide flow cytometry was used to analyze the induction of apoptosis in SUP-B15 cells after treatment with anolides. Cell cycle analysis was performed using propidium iodide flow cytometry. Modulation of BCR-ABL and downstream effector proteins was determined by western blot analysis. Syngery between withanolides and TKIs was evaluated using MTS viability to calculate combination indices. Apoptotic synergy was evaluated using Annexin V/PI.

normal MRC-5 fibroblasts = assay: MTS assay, normal MRC-5 fibroblasts (Example 7); details: Homo sapiens, MRC5
Description: as §4

SUP-B15 cells [11] = assay: Trypan blue exclusion assay, SUP-B15; details: 5×, 2×, 1×, 0.5×IC50
Description: as §4, with “Syngery” left out

SUP-B15 cells [12] = assay: Annexin V/propidium iodide apoptosis, SUP-B15; details: 48 hour; approximately 10×IC50 (Withaferin A, X001), 4×IC50 (X003)
Description: as §4
At no concentrations was the population of cells in necrosis significant.

SUP-B15 cells [13] = assay: Cell cycle analysis by PI flow cytometry, SUP-B15; details: 48 hour treatment
Description: as §4

SUP-B15 Ph+ALL cells = assay: Combination with imatinib, MTS viability, SUP-B15; details: 16 combinations
Description: as §4

[14] = Table 3, treated for 72 hours, NA = no activity

CC(=O)OCC1=C(C)C[C@H]([C@@H](C)C2CC[C@H]3[C@@H]4C[C@H]5O[C@]56[C@@H](OC(C)=O)C=CC(=O)[C@]6(CO)[C@H]4CC[C@]23C)OC1=O (some centres unmarked) [Compound X002, 4,27-diactyl X001]
IC50 (melanoma cells B16F10): 98 nM
IC50 ([1]; Table 1, 72-hour treatment): 810 nM
IC50 [1, 14]: 1250 nM
IC50 [2]: 2240 nM
IC50 [3]: 140 nM
IC50 ([4]; NCI-H727, 72 h): 370 nM
IC50 (MRC-5): 410 nM
IC50 ([5]; 72 h): 480 nM
IC50 (HS766T): 400 nM
IC50 (Mia PaCa-2): 220 nM
heat shock-induced increase in luciferase activity [6]: substantially reduced
stress and client protein response (western blot) [7]: induced oxidative and proteotoxic stress, while depleting hsf1 and client proteins of Hsp90
stress and client protein response (western blot) [8]: induced oxidative and proteotoxic stress, while depleting hsf1 and client proteins of Hsp90
HSF1 mRNA level ([9]; 8 hours): 1.3
HSP40 mRNA level ([9]; 8 hours): 13.1
HSP70 mRNA level ([9]; 8 hours): 56.6
HSF1 mRNA level ([9]; 16 hours): 1.1
HSP40 mRNA level ([9]; 16 hours): 15.3
HSP70 mRNA level ([9]; 16 hours): 196.7

CC1=C(CO)C(=O)O[C@@H]([C@@H](C)[C@H]2CC[C@H]3[C@@H]4C[C@H]5O[C@]56[C@@H](O)C=CC(=O)[C@]6(C)[C@H]4CC[C@]23C)C1 [Withaferin A, reference compound]
IC50 (melanoma cells B16F10): 260 nM
IC90 (melanoma cells B16F10; B16-F10, Table 2): 1230 nM
IC50 ([1]; Table 1, 72-hour treatment): 3960 nM
IC50 [1, 14]: 3150 nM
IC90 ([1]; SK-MEL-28, Table 2): 680 nM
IC50 [2]: 800 nM
IC50 [3]: 2000 nM
IC90 ([3]; Table 2): 3600 nM
IC50 ([4]; Table 1, NCI-H727, 72-hour treatment, read-out: IC50): 3880 nM
IC50 (MRC-5): 200 nM
IC50 ([5]; Table 1, DRO81-1, 72-hour treatment, read-out: IC50): 1090 nM
IC50 [10]: 1130 nM
IC50 (SUP-B15 Ph+ ALL cells; Homo sapiens, SUP-B15): 132 nM
Fold Difference (SUP-B15 Ph+ ALL cells; MRC-5 vs SUP-B15 IC50): 17X
IC50 (normal MRC-5 fibroblasts): 2200 nM
cell death at 24 hours, trypan blue exclusion (SUP-B15 cells [11]): did not cause significant cell death at 24 hours at any concentration tested
induction of apoptosis (SUP-B15 cells [12]): almost all cells were in either late or early apoptosis
Cell Cycle (%) G0/G1 (SUP-B15 cells [13]; 80 nM): 49.9%
Cell Cycle (%) G2/M (SUP-B15 cells [13]; 80 nM): 27.8%
Cell Cycle (%) S (SUP-B15 cells [13]; 80 nM): 22.2%
Cell Cycle (%) G0/G1 (SUP-B15 cells [13]; 160 nM): 50.2%
Cell Cycle (%) G2/M (SUP-B15 cells [13]; 160 nM): 28.4%
Cell Cycle (%) S (SUP-B15 cells [13]; 160 nM): 21.4%
Cell Cycle (%) G0/G1 (SUP-B15 cells [13]; 320 nM): 38.4%
Cell Cycle (%) G2/M (SUP-B15 cells [13]; 320 nM): 46.8%
Cell Cycle (%) S (SUP-B15 cells [13]; 320 nM): 14.8%
Cell Cycle (%) G0/G1 (SUP-B15 cells [13]; 640 nM): 23.7%
Cell Cycle (%) G2/M (SUP-B15 cells [13]; 640 nM): 71%
Cell Cycle (%) S (SUP-B15 cells [13]; 640 nM): 5.3%
Cell Cycle (%) G0/G1 (SUP-B15 cells [13]; 1280 nM): 47.1%
Cell Cycle (%) G2/M (SUP-B15 cells [13]; 1280 nM): 34.3%
Cell Cycle (%) S (SUP-B15 cells [13]; 1280 nM): 18.6%
combination index (CI) with imatinib (SUP-B15 Ph+ALL cells; 0.25×-1×IC50 of each drug): 1.3
synergy with imatinib (SUP-B15 Ph+ALL cells): only showed synergy at three of the concentrations tested
